Measured values published in patent US10709714B2 (CL BioSciences LLC, priority 2013, dated 2020).
Entries after “also recorded” stand apart in the source; their conditions may differ. Marks after values point to notes of the source that are not given here.

Columns and labels:
ovariectomized Mastomys [1] = assay: Circulating blood markers, Model 3 Mastomys OVX; assay type: in vivo
Description: CON=control animals, OVX=ovariectomized animals, OVX+GA=gastrin antagonist treated ovariectomized animals. Mean±SEM. *p<0.05 vs. CON, **p<0.05 vs. OVX alone.
Circulating bone biomarkers were also altered by OVX. Specifically, PINP was increased (0.16±0.03 ng/ml vs. 0.13±0.01, p<0.05) as was CTx-1 (0.24±0.17 ng/ml vs. 0.03±0.03, p<0.05) while osteocalcin was elevated (1.6±1.1 ng/ml vs. 0.4±0.16, p<0.05). Treatment with the antagonist attenuated each of these three ovariectomy-mediated alterations.

ovariectomized CD-1 mice [2] = assay: Bone histomorphometry, Model 1 mouse OVX; assay type: in vivo; settings: OVX CD-1 mice; GA single s.c.; 8 weeks
Description: Patterns of bone mineralization (BM: decreased), resorption cavities (RC: increased) and osteoclasts (stained multinuclear cells (two arrows): increased) were affected by OVX. These effects were reversed by drug treatment. In one aspect, this means that targeting CCK2 receptors normalizes bone morphology irrespective of low estrogen levels.
Gastrin-antagonist treatment reversed these phenomena (FIG. 45).

ovariectomized CD rats [3] = assay: Bone histomorphometry, Model 2 rat OVX; assay type: in vivo; settings: GA single s.c., 8 weeks
Description: These effects were reversed by drug treatment. In one aspect, this reflects that targeting CCK2 receptors normalizes bone morphology irrespective of low estrogen levels.
Gastrin-antagonist treatment reversed these phenomena (FIG. 50).

ovariectomized CD rats [4] = assay: Bone strength (Instron), Model 2 rat OVX; assay type: in vivo
[5] = system: calvarial osteoblasts, hFOB, BMMSCs; assay: Gene expression in bone-derived cells (ALKP, M-CSF, RANKL); assay type: cell-based, mouse, human; settings: YF476 1 nM, preincubation
Description: This was reversed by the selective CCK2 receptor antagonist, YF476 (1 nM).

ovariectomized Mastomys [6] = assay: Bone histomorphometry, Model 3 Mastomys OVX; assay type: in vivo; settings: GA single s.c., 8 weeks
Description: Patterns of bone mineralization (BM: decreased), resorption cavities (RC: increased) and osteoclasts (stained multinuclear cells (two arrows): increased) were affected by OVX. These effects were reversed by drug treatment.
The gastrin-antagonist treatment reversed these phenomena (FIG. 55).

ovariectomized Mastomys [7] = assay: Bone strength (Instron), Model 3 Mastomys OVX; assay type: in vivo
Description: Finally, bone strength was examined in Mastomys using an Instron device. Femurs were loaded to failure in four-point bending. Tests were conducted with a deflection rate of 0.05 mm/sec using a servohydraulic testing machine (Instron model 8874; Instron Corp., Norwood, Mass., USA). […] Measurements of bone strength using the Instron device confirmed the utility of the gastrin-antagonist in reversing the OVX-mediated bone phenotype.

ovariectomized Mastomys [8] = assay: MicroCT of trabecular and cortical bone, Model 3 Mastomys OVX; assay type: in vivo
[9] = system: calvarial osteoblasts, hFOB, BMMSCs; assay: Bone mineralization of bone-derived cells (fluorescent binding to hydroxyapatite); assay type: cell-based, mouse, human; settings: pre-incubation
Description: The binding of fluorescent Osteomalge to the hydroxyapatite portion of mineralized nodules was measured.

ovariectomized CD-1 mice [10] = assay: Bone strength (Instron), Model 1 mouse OVX; assay type: in vivo
[11] = OVX Mastomys + loxitidine, GA 10 ug/animal single s.c., 8 weeks
[12] = OVX Mastomys + loxitidine, GA 10 ug/animal single s.c., 8 weeks, listed as GA
[13] = OVX Mastomys + loxitidine, GA 10 ug/animal single s.c., 8 weeks, listed as antagonist
[14] = OVX Mastomys, GA-treated vs control
[15] = OVX CD rats + omeprazole, GA 50 ug/animal single s.c., 8 weeks
[16] = OVX CD rats, GA-treated vs control
[17] = OVX Mastomys + loxitidine, GA 10 ug/animal single s.c., 8 weeks, cortical bone
[18] = OVX Mastomys + loxitidine, GA 10 ug/animal single s.c., 8 weeks, trabecular bone
[19] = OVX Mastomys + loxitidine, GA 10 ug/animal single s.c., 8 weeks, trabecular bone, listed as GA
[20] = OVX Mastomys + loxitidine, GA 10 ug/animal single s.c., 8 weeks, trabecular bone, listed as Gastrin antagonist
[21] = OVX Mastomys, GA-treated vs control, cortical bone
[22] = OVX Mastomys, GA-treated vs control, trabecular bone
[23] = OVX CD-1 mice + omeprazole, GA 15 ug/animal single s.c., 8 weeks
[24] = OVX CD-1 mice, GA-treated vs control

SMILES: CNc1cccc(NC(=O)N[C@@H]2N=C(c3ccccn3)c3ccccc3N(CC(=O)C(C)(C)C)C2=O)c1 [YF476, netazepide]
- CTX-1 (ovariectomized Mastomys [1]; [11]): 0.1 ng/mL
- ESR (circulating estrogen) (ovariectomized Mastomys [1]; [11]): 2.54 pg/mL
- Osteocalcin (ovariectomized Mastomys [1]; [11]): 1.13 ng/mL
- PINP (ovariectomized Mastomys [1]; [11]): 0.13 ng/mL
- Gastrin (circulating) (ovariectomized Mastomys [1]; [12]): 2703 pg/mL
- PTH (circulating) (ovariectomized Mastomys [1]; [12]): 151 pg/mL
- Gastrin (circulating) (ovariectomized Mastomys [1]; [13]): 2704 ± 430 pg/mL
- PTH (circulating) (ovariectomized Mastomys [1]; [13]): 150 ± 37 pg/mL
- % Change CTX-1 (ovariectomized Mastomys [1]; [14]): +230%
- % Change ESR (ovariectomized Mastomys [1]; [14]): −70%*
- % Change Gastrin (ovariectomized Mastomys [1]; [14]): −27%**
- % Change Osteocalcin (ovariectomized Mastomys [1]; [14]): +13%
- % Change PINP (ovariectomized Mastomys [1]; [14]): 0%*^, **
- % Change PTH (ovariectomized Mastomys [1]; [14]): −48%*^, **
- effect on OVX changes in bone mineralization, resorption cavities and TRAP-positive osteoclasts (ovariectomized CD-1 mice [2]): reversed
- effect on OVX changes in bone mineralization, resorption cavities and TRAP-positive osteoclasts (ovariectomized CD rats [3]): reversed
- Fracture Load (ovariectomized CD rats [4]; [15]): 276
- Max Load (ovariectomized CD rats [4]; [15]): 282
- Stiffness (ovariectomized CD rats [4]; [15]): 565
- Total Work (ovariectomized CD rats [4]; [15]): 276
- Yield (Stiffness) (ovariectomized CD rats [4]; [15]): 508
- % Change Fracture Load (ovariectomized CD rats [4]; [16]): −8%
- % Change Max Load (ovariectomized CD rats [4]; [16]): 0%
- % Change Stiffness (ovariectomized CD rats [4]; [16]): −2%**
- % Change Total Work (ovariectomized CD rats [4]; [16]): 0%
- % Change Yield (Stiffness) (ovariectomized CD rats [4]; [16]): −2%**
- effect on gastrin-inhibited gene expression [5]: reversed and normalized
- effect on OVX changes in bone mineralization, resorption cavities and TRAP-positive osteoclasts (ovariectomized Mastomys [6]): reversed
- Fracture Load (ovariectomized Mastomys [7]; [11]): 42.1
- Max Load (ovariectomized Mastomys [7]; [11]): 42.2
- Stiffness (ovariectomized Mastomys [7]; [11]): 311
- Total Work (ovariectomized Mastomys [7]; [11]): 14.8
- Yield (Stiffness) (ovariectomized Mastomys [7]; [11]): 280
- % Change Fracture Load (ovariectomized Mastomys [7]; [14]): −25%
- % Change Max Load (ovariectomized Mastomys [7]; [14]): −25%
- % Change Stiffness (ovariectomized Mastomys [7]; [14]): −6%**
- % Change Total Work (ovariectomized Mastomys [7]; [14]): 55%*^,**
- % Change Yield (Stiffness) (ovariectomized Mastomys [7]; [14]): −6%**
- BS (ovariectomized Mastomys [8]; [17]): 14.21
- BV/TV (ovariectomized Mastomys [8]; [17]): 0.953
- Ct. Th (ovariectomized Mastomys [8]; [17]): 0.288
- Dens (Apparent Density, cortical) (ovariectomized Mastomys [8]; [17]): 1159
- pMOI (ovariectomized Mastomys [8]; [17]): 1.10
- BS (ovariectomized Mastomys [8]; [18]): 19.2
- BV/TV (ovariectomized Mastomys [8]; [18]): 0.175
- Conns-Dens (ovariectomized Mastomys [8]; [18]): 124.1
- SMI (ovariectomized Mastomys [8]; [18]): 0.74
- Tb. Sp (ovariectomized Mastomys [8]; [18]): 0.457
- Dens (Apparent Density, trabecular) (ovariectomized Mastomys [8]; [19]): 187.1
- Tb. N (ovariectomized Mastomys [8]; [19]): 2.38
- Tb. Th (ovariectomized Mastomys [8]; [19]): 0.086
- Dens (Apparent Density, trabecular) (ovariectomized Mastomys [8]; [20]): 187±66
- Tb. N (ovariectomized Mastomys [8]; [20]): 2.4±0.6
- Tb. Th (ovariectomized Mastomys [8]; [20]): 0.08±0.01
- % Change BS (ovariectomized Mastomys [8]; [21]): −1%
- % Change BV/TV (ovariectomized Mastomys [8]; [21]): 0%
- % Change Ct. Th (ovariectomized Mastomys [8]; [21]): −1%
- % Change Dens (Apparent Density, cortical) (ovariectomized Mastomys [8]; [21]): −4%
- % Change pMOI (ovariectomized Mastomys [8]; [21]): −4%
- % Change BS (ovariectomized Mastomys [8]; [22]): +4%**
- % Change BV/TV (ovariectomized Mastomys [8]; [22]): +27%**
- % Change Conns-Dens (ovariectomized Mastomys [8]; [22]): +28%
- % Change Dens (Apparent Density, trabecular) (ovariectomized Mastomys [8]; [22]): +19%**
- % Change SMI (ovariectomized Mastomys [8]; [22]): 0%
- % Change Tb. N (ovariectomized Mastomys [8]; [22]): +18%**
- % Change Tb. Sp (ovariectomized Mastomys [8]; [22]): −20%**
- % Change Tb. Th (ovariectomized Mastomys [8]; [22]): +25%*^; **
- effect on gastrin inhibition of mineralization [9]: inhibited; also recorded: not reversed
- Max Load (ovariectomized CD-1 mice [10]; [23]): 44.1
- Stiffness (ovariectomized CD-1 mice [10]; [23]): 285
- Total Work (ovariectomized CD-1 mice [10]; [23]): 19.4
- Yield (Stiffness) (ovariectomized CD-1 mice [10]; [23]): 256
- Fracture Load (ovariectomized CD-1 mice [10]; OVX CD-1 mice + omeprazole, GA 15 ug/animal single s.c., 8 weeks, listed as GA): 42.8
- Fracture Load (ovariectomized CD-1 mice [10]; OVX CD-1 mice + omeprazole, GA 15 ug/animal single s.c., 8 weeks, listed as gastrin antagonist): 43±6
- % Change Fracture Load (ovariectomized CD-1 mice [10]; [24]): −24%*
- % Change Max Load (ovariectomized CD-1 mice [10]; [24]): −28%*
- % Change Stiffness (ovariectomized CD-1 mice [10]; [24]): −3%**
- % Change Total Work (ovariectomized CD-1 mice [10]; [24]): −4%**
- % Change Yield (Stiffness) (ovariectomized CD-1 mice [10]; [24]): −5%**
